Our source for the relative binding affinity (RBA) and IC50 values is ChEMBL document CHEMBL1137303, “Progressive docking: a hybrid QSAR/docking approach for accelerating in silico high throughput screening” (J Med Chem, 2006).

Each structure is given as a SMILES string.

Experiment [1] deals with T1, Sex hormone-binding globulin (Homo sapiens) (UniProt P04278).
T1 sequence (whole entry): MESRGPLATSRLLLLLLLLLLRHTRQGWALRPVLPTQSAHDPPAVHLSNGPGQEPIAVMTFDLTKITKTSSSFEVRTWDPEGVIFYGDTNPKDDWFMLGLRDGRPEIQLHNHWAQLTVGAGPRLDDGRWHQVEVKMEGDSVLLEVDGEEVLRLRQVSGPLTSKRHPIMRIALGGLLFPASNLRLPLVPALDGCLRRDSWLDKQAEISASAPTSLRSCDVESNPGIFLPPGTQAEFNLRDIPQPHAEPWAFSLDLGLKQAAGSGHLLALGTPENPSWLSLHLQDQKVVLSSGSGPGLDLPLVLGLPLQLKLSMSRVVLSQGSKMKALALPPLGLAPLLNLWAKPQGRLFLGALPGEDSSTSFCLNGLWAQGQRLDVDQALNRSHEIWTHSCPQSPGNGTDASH
Nature of the experiment: Displacement of [3H]DHT from human SHBG relative to testosterone. Background: Displacement assays read how much labelled ligand stays bound in the presence of the test substance.

The target in experiment [2] is T2, Sex hormone-binding globulin (Homo sapiens, UniProt P04278).
T2 sequence (P04278 whole entry): T1 sequence (whole entry)
In words: Displacement of [3H]DHT from human SHBG.

For orientation: IC50 means the concentration needed to halve the response being measured.

Take `CCCC1c2ccc(O)cc2CC1c1ccc(O)cc1` (stereo not given): in experiment [1], the relative binding affinity (RBA) worked out at 768. The IC50 in experiment [2] is 11.1 µM.
`C[C@]12CC[C@@H]3c4ccc(O)cc4CC[C@H]3[C@@H]1CC[C@@H]2O` had a relative binding affinity (RBA) in experiment [1] of 3.5.
The molecule `Cc1cc(Cc2cc(C)c(O)c(CO)c2)cc(CO)c1O` gave a relative binding affinity (RBA) in experiment [1] of 3330. The molecule further had an IC50 in experiment [2] of 48.2 µM.
For `CC12CCNC(=O)C=C1CCC1C2CCC2(C)C(O)CCC12` (stereo not given) the same measures were 66 and 0.95 µM.
On to `C[C@]12CC[C@H]3[C@@H](CCC4=CC(=O)CC[C@@]43C)[C@@H]1CC[C@@H]2O` [TESTOSTERONE], for which the IC50 in experiment [2] was found to be 0.014 µM.
In experiment [1], `CCC(c1ccc(O)c(O)c1)C(CC)c1ccc(O)c(F)c1` (stereo not given) showed a relative binding affinity (RBA) of 714. In addition, the IC50 in experiment [2] turned out to be 10.3 µM.
